One may read the IC50 as the point on the concentration scale where inhibition reaches its midpoint. The low end stands for inhibition by little substance, the high end for a need for much substance.

Among the data in ChEMBL document CHEMBL1148944, “Iridoid glucosides and p-coumaroyl iridoids from Viburnum luzonicum and their cytotoxicity” (J Nat Prod, 2004) are IC50 values, retold here.

The test can be described thus: Cytotoxicity against human HeLaS3 cells by WST1 assay. It is filed as functional, cell-based. Particulars: HeLa S3. For orientation: Formazan colour is commonly taken as a measure of viable cells.

Structures are written as SMILES.

On to `CCC(C)CC(=O)O[C@@H]1OC=C(CO)[C@H]2C[C@H](OC(=O)/C=C/c3ccc(O)cc3)[C@](O)(CO)[C@@H]12` (stereo not given in full) [1-O-DEISOVAEROYL-1-O-3-METHYLVALEROYL-LUZONOID A], for which the IC50 was 7.4 µM.
In the case of `O=c1[nH]cc(F)c(=O)[nH]1` [FLUOROURACIL], the half-inhibitory concentration (IC50) stood at 5.4 µM.
The molecule `CC(C)CC(=O)O[C@@H]1OC=C(CO)[C@H]2C[C@H](OC(=O)/C=C/c3ccc(O)cc3)[C@](O)(CO)[C@@H]12` [LUZONOID A] had an IC50 of 2.89 µM.
The molecule `CC(C)CC(=O)O[C@@H]1OC=C(CO)[C@H]2C[C@H](OC(=O)/C=C\c3ccc(O)cc3)[C@](O)(CO)[C@@H]12` [LUZONOID B] yielded an IC50 of 3.11 µM.
As to `CC(C)CC(=O)O[C@@H]1OC=C(CO)[C@H]2C[C@H](O)[C@](O)(COC(=O)/C=C/c3ccc(O)cc3)[C@@H]12` [LUZONOID C], the half-maximal inhibitory concentration (IC50) is 3.57 µM.
`CC(C)CC(=O)O[C@@H]1OC=C(CO)[C@H]2C[C@H](O)[C@](O)(COC(=O)/C=C\c3ccc(O)cc3)[C@@H]12` [LUZONOID D] came in with an IC50 of 4.56 µM.
Molecule `CC(C)CC(=O)O[C@@H]1OC=C(CO[C@@H]2O[C@H](CO)[C@@H](O)[C@H](O)[C@H]2O)[C@H]2C[C@H](OC(=O)/C=C/c3ccc(O)cc3)[C@](O)(CO)[C@@H]12` [LUZONOSIDE A] came in with an IC50 of 3.39 µM.
Regarding `CC(C)CC(=O)O[C@@H]1OC=C(CO[C@@H]2O[C@H](CO)[C@@H](O)[C@H](O)[C@H]2O)[C@H]2C[C@H](OC(=O)/C=C\c3ccc(O)cc3)[C@](O)(CO)[C@@H]12` [LUZONOSIDE B], the IC50 was 4.67 µM.
In the case of `COC(=O)C1=CO[C@@H](O[C@@H]2O[C@H](CO)[C@@H](O)[C@H](O)[C@H]2O)[C@@H]2[C@@H](COC(=O)/C=C/c3ccc(O)cc3)CC[C@H]12` [LUZONOSIDE C] it was 100 µM.
Regarding `COC(=O)C1=CO[C@@H](O[C@@H]2O[C@H](CO)[C@@H](O)[C@H](O)[C@H]2O)[C@@H]2[C@@H](COC(=O)/C=C\c3ccc(O)cc3)CC[C@H]12` [LUZONOSIDE D], the IC50 stood at 100 µM.
